Reference: patent US20010049372A1, “Antiviral nucleoside analogues” (BioChem Pharma Inc., priority 1998, published 2001)
Where two headings read alike, the source gives them in different places.

Columns and labels:
[1] = Pharmacokinetic study in male and female rats (single dose iv or po); type: in vivo, rat; conditions: for Cmax / bioavailability / Tmax: plasma; for Cmax: read-out: Cmax; for Tmax: read-out: Tmax (converted)
Protocol: Compound A(−), DAPD, and DXG were administrated as a single dose, either intravenously through the jugular vein at 10 mg/kg or orally at 20, 125, 500, 1000 or 2000 mg/kg. All rats were fasted for 12 hours prior to po dosing treatment. The vehicle used for both iv and po administrations was 0.1% carboxymethylcellulose and 0.1% Tween 80 in distilled water, acidified to pH 3.15 with 1N HCl. Blood samples were taken from rats at the times shown in the schedule below for all oral dosing. From a total of 10 rats for each administration, seven time points were taken for the intravenous through the jugular vein dosing (2, 5, 15, 30, 60, 120 and 240 min) and for the oral dosing (5-360 min) at 20 mg/kg, whereas two additional time points at 480 and 1440 min were taken for the oral doses of 125-2000 mg/kg. As a result, each time point was in quadruplicate, except for the 1440 minute time point when blood samples were taken through the jugular vein from all the rats prior to being euthanized.
Blood samples (1 ml) were collected from the rat tails into a vacutainer containing EDTA (3 ml) for both iv and po administrations. Plasma samples were prepared by centrifugation at 2000×g for 15 minutes at 4° C.
Plasma samples (diluted to 1 ml with water) were loaded onto the Abselut Nexus sorbent (#1210-3100) and drawn through under low vacuum (approximately 5′′ Hg). One milliliter of deionized water was added to the sorbent and drawn through under vacuum. The extraction column was dried for 1 minute using a high vacuum (>10′′ Hg). One milliliter of methanol was added to the Abselut Nexus column and the eluent was collected at 1-2 ml/min. The eluent was evaporated to dryness using a Speed Vac, and the samples were reconstituted in 120 μl H2O; 100 μl was used for injection.

HepG2 cells = test: Mitochondria DNA toxicity assay; type: cell-based; conditions: 28 days, up to 100 μM, the highest concentration tested (FIG. 1)
Protocol: Mitochondria DNA (mtDNA) toxicity of the compound A (−) was tested in HepG2 cells. The cells were cultured for 28 days under the compound treatment. Th cells were passaged once a week. However, the cell culture medium containing proper concentration of the compound was changed twice a week. Zalcitabine was used as a control. The toxicity was determined by measuring content ratio of mtDNA and nuclear DNA (28s rDNA) by a southern hybridization assay (de Muys et al., 1999). […]

Compound: Nc1nc(NC2CC2)c2ncn([C@H]3CO[C@@H](CO)O3)c2n1 [Compound A (-), (−)-(2R,4R)-2-hydroxymethyl-4-(2′-amino-6′-cyclopropylamino-purine-9′-yl)-1,3-dioxolane]
- AUG ([1]; female rat, iv 10 mg/kg): 328 µg·min/mL
- T-half elimination ([1]; female rat, iv 10 mg/kg): 36.9 min
- AUG ([1]; female rat, po 20 mg/kg): 602 µg·min/mL
- T-half elimination ([1]; female rat, po 20 mg/kg): 57.1 min
- AUG ([1]; male rat, iv 10 mg/kg): 304 µg·min/mL
- T-half elimination ([1]; male rat, iv 10 mg/kg): 34.2 min
- AUG ([1]; male rat, po 20 mg/kg): 600 µg·min/mL
- T-half elimination ([1]; male rat, po 20 mg/kg): 72.5 min
- Cmax ([1]; female rat, iv 10 mg/kg): 22900 ng/mL
- bioavailability ([1]; female rat, po 20 mg/kg): 92%
- Cmax ([1]; female rat, po 20 mg/kg): 5500 ng/mL
- Tmax ([1]; female rat, po 20 mg/kg): 22.8 min
- Cmax ([1]; male rat, iv 10 mg/kg): 19200 ng/mL
- bioavailability ([1]; male rat, po 20 mg/kg): 99%
- Cmax ([1]; male rat, po 20 mg/kg): 4600 ng/mL
- Tmax ([1]; male rat, po 20 mg/kg): 23.4 min
- mtDNA toxicity (content ratio of mtDNA and nuclear DNA, southern hybridization) (HepG2 cells): did not show significant mtDNA toxicity
